Results on nine compounds are retold here after paper PMC4508061, “Selectivity Profiling and Biological Activity of Novel β-Carbolines as Potent and Selective DYRK1 Kinase Inhibitors” (PLoS ONE, 2015).

Read-outs that look alike come from different tables or passages of the source.

The target in one data set is T1, DYRK2 (Homo sapiens, UniProt Q92630).
T1 construct: purchased ProQinase (Freiburg, Germany)
T1 sequence (Q92630 1-601): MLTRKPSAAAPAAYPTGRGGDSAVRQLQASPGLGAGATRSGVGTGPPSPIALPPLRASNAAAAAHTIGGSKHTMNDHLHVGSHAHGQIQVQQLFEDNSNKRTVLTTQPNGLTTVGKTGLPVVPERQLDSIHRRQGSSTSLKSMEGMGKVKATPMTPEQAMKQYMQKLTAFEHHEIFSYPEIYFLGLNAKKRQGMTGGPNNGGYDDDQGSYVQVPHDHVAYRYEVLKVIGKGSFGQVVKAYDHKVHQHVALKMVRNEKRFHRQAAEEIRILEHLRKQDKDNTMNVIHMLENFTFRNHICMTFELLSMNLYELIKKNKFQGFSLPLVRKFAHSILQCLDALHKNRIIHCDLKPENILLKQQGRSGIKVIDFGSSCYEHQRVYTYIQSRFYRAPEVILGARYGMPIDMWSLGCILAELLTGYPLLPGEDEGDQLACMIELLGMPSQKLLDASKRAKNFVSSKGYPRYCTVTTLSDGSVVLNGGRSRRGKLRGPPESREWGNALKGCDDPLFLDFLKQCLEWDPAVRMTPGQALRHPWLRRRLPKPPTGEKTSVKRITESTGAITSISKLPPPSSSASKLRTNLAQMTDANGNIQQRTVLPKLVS
Nature of the data set: Kinase-GLO luminescent kinase assay. It counts as biochemical. The conditions noted are these: 1 μM compound; means of at least 3 measurements. The method, then:
(§1) Bacterial expression plasmids for GST-DYRK1A-ΔC and GST-DYRK2 have been described earlier. […] Expression in logarithmically growing E. coli culture was performed for 3 h at 37°C (GST-DYRK1A-ΔC and GST-DYRK2), 3 h at 26°C (GST-HIPK2cat), over night at 28°C (GST-CLK1cat) or over night at room temperature (GST-DYRK1Bcat).
(§2) Compounds were screened for inhibitory effects against GST-DYRK1A-ΔC, GST-DYRK1Bcat, GST-DYRK2, GST-CLK1cat or GST-HIPK2cat using the Kinase-GLO Luminescent Kinase Assay from Promega. Assays were performed in a total volume of 10 μL in kinase-buffer (25 mM Hepes pH 7.4, 0.5 mM DTT, 5 mM MgCl2, 5 μM ATP) with appropriate peptide substrates (20 μM DYRKtide for the DYRKs and 100 μM DYRKtide for HIPK2, […]; or 100 μM RS domain-derived peptide for CLK1, […]). Assays were started with this amount of a kinase preparation that consumed approximately 90% of the ATP in the assay (linear range of the kinase titration curve). The reactions were run at room temperature for 30 min before 10 μL Kinase-GLO reagent was added. After incubation at room temperature for additional 10 min, luminescence was recorded for 1 s.
(In general: Kinase-Glo measures the ATP left after a reaction by luminescence.)

Data set [1] addresses T2, DYRK1A (Homo sapiens, UniProt Q13627).
T2 construct: purchased ProQinase (Freiburg, Germany)
Nature of the data set: Kinase-GLO luminescent kinase assay. The settings on record: 1 μM compound; means of at least 3 measurements. In kind it is biochemical. The method, then: as §1, §2

Another data set concerns the target DYRK1B (Homo sapiens, UniProt Q9Y463). Nature of the data set: Kinase-GLO luminescent kinase assay. In kind it is biochemical. On the set-up: made in house; host or cells: E. coli. The settings on record: 1 μM compound; means of at least 3 measurements. The method, then:
as §1, §2

Data set [2] has as its target T3, HIPK2 (Homo sapiens, UniProt Q9H2X6). As to the kind of experiment: Kinase-GLO luminescent kinase assay. The settings on record: 10 μM compound; means of at least 3 measurements. Set-up: made in house; host or cells: E. coli. It counts as biochemical. As for the experimental part:
as §1, §2
Target sequence in this assay (Q9H2X6 180-533): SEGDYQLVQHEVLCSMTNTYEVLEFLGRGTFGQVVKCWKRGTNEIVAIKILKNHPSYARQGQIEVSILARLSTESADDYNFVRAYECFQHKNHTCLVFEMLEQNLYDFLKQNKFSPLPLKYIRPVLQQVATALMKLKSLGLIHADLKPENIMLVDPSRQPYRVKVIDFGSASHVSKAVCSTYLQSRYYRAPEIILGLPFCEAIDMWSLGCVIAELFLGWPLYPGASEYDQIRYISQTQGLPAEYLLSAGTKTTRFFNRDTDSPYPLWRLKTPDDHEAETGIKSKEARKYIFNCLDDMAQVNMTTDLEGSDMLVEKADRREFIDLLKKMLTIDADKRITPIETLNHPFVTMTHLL

For data set [3], the target named is T4, CLK1 (Homo sapiens, UniProt P49759). Nature of the data set: Kinase-GLO luminescent kinase assay. The conditions noted are these: 1 μM compound; means of at least 3 measurements. On the set-up: made in house; host or cells: E. coli. In kind it is biochemical. As for the experimental part:
as §1, §2
Target sequence in this assay (P49759 141-484): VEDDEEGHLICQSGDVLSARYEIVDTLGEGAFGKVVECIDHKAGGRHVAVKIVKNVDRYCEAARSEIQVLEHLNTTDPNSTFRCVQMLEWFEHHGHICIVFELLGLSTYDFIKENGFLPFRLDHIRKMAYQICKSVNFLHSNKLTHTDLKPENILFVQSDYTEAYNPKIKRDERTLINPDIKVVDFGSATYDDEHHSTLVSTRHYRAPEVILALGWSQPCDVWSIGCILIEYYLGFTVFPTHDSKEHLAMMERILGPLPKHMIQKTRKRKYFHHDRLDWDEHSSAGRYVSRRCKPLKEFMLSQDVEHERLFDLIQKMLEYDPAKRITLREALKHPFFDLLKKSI

Data set [4] can be described thus: Cell viability XTT assay. In kind it is cell-based. The conditions noted are these: human, read-out: Viability of treated cells relative to untreated control. For orientation: Tetrazolium dyes change colour on reduction, which living cells bring about.
Data set [5] is described as follows: Cell viability XTT assay. It counts as cell-based. The conditions noted are these: rat, read-out: Viability of treated cells relative to untreated control; for viability at 3 days, 1 µM: PC12, 1 μM.
Data set [6] in a line: Cell viability XTT assay. It counts as cell-based. The settings on record: human, read-out: Viability of treated cells relative to untreated control. This is another data set of the same source.
The target in the next data set is PIM2 (Homo sapiens, UniProt Q9P1W9). Set-up: purchased ProQinase (Freiburg, Germany). The conditions noted are these: 10 μM; cited from earlier work.
The target in another data set is IRAK1 (Homo sapiens, UniProt P51617). On the set-up: purchased ProQinase (Freiburg, Germany). The conditions noted are these: 10 μM; cited from earlier work.
For data set [7], the system named is DYRK1A. The settings on record: 10 μM; cited from earlier work.
The target in the next data set is T5, HIPK4 (Homo sapiens, UniProt Q8NE63).
T5 sequence (Q8NE63 1-616): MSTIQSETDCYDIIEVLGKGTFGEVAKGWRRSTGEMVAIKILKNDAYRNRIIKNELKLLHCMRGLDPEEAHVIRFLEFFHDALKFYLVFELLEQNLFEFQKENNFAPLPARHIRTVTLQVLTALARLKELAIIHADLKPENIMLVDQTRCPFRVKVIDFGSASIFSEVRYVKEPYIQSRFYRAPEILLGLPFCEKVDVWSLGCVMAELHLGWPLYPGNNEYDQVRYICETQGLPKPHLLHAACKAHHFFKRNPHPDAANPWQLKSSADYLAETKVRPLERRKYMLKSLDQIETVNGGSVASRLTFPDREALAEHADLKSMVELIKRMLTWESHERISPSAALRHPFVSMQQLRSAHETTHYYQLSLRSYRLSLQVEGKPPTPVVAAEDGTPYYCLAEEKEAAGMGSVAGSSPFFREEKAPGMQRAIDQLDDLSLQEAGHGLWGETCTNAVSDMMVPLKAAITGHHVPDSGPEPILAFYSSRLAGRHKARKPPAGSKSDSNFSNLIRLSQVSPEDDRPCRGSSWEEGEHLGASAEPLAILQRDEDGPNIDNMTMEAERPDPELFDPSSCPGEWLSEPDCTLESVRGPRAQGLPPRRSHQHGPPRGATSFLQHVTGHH
On the set-up: purchased ProQinase (Freiburg, Germany). The conditions noted are these: 10 μM; cited from earlier work.

The target of a further data set is PIM3 (Homo sapiens, UniProt Q86V86). Set-up: purchased ProQinase (Freiburg, Germany). The conditions noted are these: 10 μM; cited from earlier work.
A further data set has as its target HIPK1 (Homo sapiens, UniProt Q86Z02). Set-up: purchased ProQinase (Freiburg, Germany). The settings on record: 10 μM; cited from earlier work.
Another data set deals with T6, CLK3 (Homo sapiens, UniProt P49761).
T6 construct: purchased ProQinase (Freiburg, Germany)
The conditions noted are these: 10 μM; cited from earlier work.

Data set [8] deals with T3, HIPK2. Set-up: purchased ProQinase (Freiburg, Germany). The settings on record: 10 μM; cited from earlier work.
Target sequence in this assay (Q9H2X6 whole entry): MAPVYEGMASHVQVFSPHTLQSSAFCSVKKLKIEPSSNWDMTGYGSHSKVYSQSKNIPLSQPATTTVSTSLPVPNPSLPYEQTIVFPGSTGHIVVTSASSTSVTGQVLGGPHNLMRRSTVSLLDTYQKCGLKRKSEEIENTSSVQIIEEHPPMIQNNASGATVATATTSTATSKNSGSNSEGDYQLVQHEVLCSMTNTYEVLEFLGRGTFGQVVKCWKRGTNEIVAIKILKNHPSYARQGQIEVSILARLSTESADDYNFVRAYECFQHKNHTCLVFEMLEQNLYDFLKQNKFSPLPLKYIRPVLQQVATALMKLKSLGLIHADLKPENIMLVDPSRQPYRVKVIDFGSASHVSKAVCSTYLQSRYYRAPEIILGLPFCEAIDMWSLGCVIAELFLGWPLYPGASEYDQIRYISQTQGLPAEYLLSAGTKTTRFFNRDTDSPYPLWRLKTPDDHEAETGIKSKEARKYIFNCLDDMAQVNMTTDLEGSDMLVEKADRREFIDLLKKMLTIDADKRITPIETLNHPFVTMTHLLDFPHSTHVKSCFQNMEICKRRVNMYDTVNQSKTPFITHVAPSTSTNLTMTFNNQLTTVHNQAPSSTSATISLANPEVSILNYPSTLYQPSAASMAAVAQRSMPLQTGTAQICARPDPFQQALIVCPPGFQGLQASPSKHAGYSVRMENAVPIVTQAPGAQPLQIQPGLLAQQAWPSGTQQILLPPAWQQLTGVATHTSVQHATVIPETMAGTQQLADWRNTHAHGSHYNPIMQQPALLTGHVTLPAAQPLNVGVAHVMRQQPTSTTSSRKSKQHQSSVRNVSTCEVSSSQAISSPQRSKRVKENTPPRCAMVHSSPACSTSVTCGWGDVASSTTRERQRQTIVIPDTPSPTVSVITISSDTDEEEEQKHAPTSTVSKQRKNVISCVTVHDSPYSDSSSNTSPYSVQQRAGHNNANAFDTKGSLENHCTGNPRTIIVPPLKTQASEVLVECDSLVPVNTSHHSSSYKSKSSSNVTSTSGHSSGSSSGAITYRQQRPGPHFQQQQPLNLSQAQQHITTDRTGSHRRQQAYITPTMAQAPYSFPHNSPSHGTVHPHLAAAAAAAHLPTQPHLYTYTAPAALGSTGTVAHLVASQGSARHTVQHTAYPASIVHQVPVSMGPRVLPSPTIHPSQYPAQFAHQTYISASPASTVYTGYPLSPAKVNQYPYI
Data set [9] addresses T4, CLK1. Set-up: purchased ProQinase (Freiburg, Germany). The settings on record: 10 μM; cited from earlier work.
Another data set concerns the target HIPK3 (Homo sapiens, UniProt Q9H422). Set-up: purchased ProQinase (Freiburg, Germany). The settings on record: 10 μM; cited from earlier work.
The target in another data set is PIM1 (Homo sapiens, UniProt P11309). On the set-up: purchased ProQinase (Freiburg, Germany). The conditions noted are these: 10 μM; cited from earlier work.
Sequence of PIM1 (P11309 whole entry): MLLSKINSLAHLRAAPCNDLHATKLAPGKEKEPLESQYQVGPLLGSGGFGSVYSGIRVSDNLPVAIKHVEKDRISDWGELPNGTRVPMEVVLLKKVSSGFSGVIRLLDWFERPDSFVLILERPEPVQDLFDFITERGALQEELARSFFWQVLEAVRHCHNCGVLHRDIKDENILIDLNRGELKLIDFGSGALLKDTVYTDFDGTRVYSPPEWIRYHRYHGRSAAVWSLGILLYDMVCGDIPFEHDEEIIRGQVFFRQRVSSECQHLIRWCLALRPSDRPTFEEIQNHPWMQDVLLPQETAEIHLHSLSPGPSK

Sequence of IRAK1 (P51617 whole entry): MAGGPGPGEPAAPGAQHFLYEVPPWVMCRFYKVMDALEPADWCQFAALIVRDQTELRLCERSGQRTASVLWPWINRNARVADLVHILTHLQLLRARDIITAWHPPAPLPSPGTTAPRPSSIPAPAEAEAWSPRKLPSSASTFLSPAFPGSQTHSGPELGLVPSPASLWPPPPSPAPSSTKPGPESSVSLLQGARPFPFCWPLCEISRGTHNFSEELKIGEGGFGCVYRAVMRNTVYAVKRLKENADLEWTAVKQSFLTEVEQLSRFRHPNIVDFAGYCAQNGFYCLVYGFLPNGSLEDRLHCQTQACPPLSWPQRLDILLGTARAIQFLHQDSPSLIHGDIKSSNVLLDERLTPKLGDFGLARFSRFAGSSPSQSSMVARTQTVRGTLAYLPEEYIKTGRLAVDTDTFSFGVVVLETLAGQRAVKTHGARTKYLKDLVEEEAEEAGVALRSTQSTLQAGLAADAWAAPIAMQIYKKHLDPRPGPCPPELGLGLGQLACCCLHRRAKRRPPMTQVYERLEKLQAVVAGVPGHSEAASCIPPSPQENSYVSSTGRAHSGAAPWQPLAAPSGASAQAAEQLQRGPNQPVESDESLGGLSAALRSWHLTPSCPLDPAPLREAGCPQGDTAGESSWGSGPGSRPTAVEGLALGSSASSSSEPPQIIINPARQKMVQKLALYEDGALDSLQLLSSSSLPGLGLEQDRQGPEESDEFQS
Sequence of HIPK1 (Q86Z02 whole entry): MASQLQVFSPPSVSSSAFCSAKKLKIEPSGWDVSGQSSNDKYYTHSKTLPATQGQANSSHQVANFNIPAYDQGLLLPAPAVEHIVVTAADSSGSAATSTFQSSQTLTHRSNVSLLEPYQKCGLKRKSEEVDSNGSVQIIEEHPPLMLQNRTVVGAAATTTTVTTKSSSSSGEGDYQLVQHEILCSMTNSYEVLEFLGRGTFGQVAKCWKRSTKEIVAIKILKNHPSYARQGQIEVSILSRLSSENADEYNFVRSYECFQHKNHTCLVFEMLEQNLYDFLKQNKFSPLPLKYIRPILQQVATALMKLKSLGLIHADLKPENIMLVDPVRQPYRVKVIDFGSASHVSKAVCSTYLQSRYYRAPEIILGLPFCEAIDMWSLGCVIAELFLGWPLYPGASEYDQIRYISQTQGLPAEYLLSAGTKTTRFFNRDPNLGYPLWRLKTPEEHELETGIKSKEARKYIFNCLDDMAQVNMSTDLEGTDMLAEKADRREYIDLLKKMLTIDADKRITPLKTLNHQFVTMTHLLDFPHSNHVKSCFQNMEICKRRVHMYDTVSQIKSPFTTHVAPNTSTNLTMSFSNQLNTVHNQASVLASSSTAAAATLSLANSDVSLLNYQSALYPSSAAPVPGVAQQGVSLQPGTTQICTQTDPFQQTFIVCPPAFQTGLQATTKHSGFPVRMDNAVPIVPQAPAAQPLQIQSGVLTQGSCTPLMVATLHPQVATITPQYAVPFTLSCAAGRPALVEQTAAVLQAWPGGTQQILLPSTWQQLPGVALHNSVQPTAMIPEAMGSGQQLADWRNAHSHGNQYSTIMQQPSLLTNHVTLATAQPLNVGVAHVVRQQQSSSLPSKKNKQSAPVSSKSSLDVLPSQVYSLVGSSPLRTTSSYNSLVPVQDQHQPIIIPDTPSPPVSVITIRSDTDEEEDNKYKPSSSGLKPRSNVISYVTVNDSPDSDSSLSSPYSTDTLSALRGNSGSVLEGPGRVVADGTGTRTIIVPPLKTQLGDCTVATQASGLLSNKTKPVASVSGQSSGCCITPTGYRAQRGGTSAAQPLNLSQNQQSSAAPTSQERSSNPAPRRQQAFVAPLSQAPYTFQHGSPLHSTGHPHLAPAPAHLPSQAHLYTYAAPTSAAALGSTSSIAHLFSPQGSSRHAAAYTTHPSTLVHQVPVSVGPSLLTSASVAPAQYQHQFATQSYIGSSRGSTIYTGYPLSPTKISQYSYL
Sequence of PIM2 (Q9P1W9 whole entry): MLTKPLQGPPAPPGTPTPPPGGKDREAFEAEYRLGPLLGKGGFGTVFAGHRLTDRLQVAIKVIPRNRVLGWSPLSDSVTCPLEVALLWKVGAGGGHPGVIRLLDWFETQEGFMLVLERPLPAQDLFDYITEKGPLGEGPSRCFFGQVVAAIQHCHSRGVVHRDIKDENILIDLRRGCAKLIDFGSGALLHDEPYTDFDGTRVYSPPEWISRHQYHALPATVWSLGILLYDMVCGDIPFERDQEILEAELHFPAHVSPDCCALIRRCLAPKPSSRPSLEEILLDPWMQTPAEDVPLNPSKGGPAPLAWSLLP

As for `COc1ccc2c3ccnc(C)c3n(CCC#N)c2c1` [AnnH42], on DYRK2, the “Residual activity (% of control) DYRK2” value was 81 % of control. Also, at DYRK1A [1], the “Residual activity (% of control) DYRK1A” value was 22 % of control. The “Residual activity (% of control) DYRK1B” value on DYRK1B was 43 % of control. Also, the “Residual activity (% of control) HIPK2” value at HIPK2 [2] was 96 % of control. Besides, the “Residual activity (% of control) CLK1” value on CLK1 [3] is reported as 44 % of control.

Take `CN[C@@H]1C[C@H]2O[C@@](C)([C@@H]1OC)n1c3ccccc3c3c4c(c5c6ccccc6n2c5c31)C(=O)NC4` [Staurosporine, reference compound]: the viability at 3 days, 1 µM in “Cell viability XTT assay [4]” (SH-SY5Y) worked out at 6%; in the data set “Cell viability XTT assay [5]”, 18%; in the data set “Cell viability XTT assay [6]” (HeLa), 8%.

Consider `Cc1nccc2c3ccc(Cl)c(Cl)c3n(CC#N)c12` [AnnH69], for which, on DYRK2, the “Residual activity (% of control) DYRK2” value is 61 % of control. Also, the “Residual activity (% of control) DYRK1A” value on DYRK1A [1] is on record as 17 % of control. The “Residual activity (% of control) DYRK1B” value on DYRK1B is given as 60 % of control. Moreover, the “Residual activity (% of control) HIPK2” value at HIPK2 [2] is 33 % of control. The “Residual activity (% of control) CLK1” value at CLK1 [3] is given as 33 % of control.

`C#CCn1c2c(C)nccc2c2ccc(Cl)c(Cl)c21` [AnnH67]: on DYRK2, the “Residual activity (% of control) DYRK2” value was 100 % of control. In addition, the “Residual activity (% of control) DYRK1A” value at DYRK1A [1] was 17 % of control. In addition, the “Residual activity (% of control) DYRK1B” value on DYRK1B is on record as 59 % of control. In addition, the “Residual activity (% of control) HIPK2” value at HIPK2 [2] is 74 % of control. On CLK1 [3], the “Residual activity (% of control) CLK1” value is listed as 34 % of control.

For `O=C1NC(Nc2ccccc2)=N/C1=C\c1ccc2c(c1)OCO2` [L41], the “Residual activity (% of control)” value is listed as 41 % of control on PIM2; 3 % of control at IRAK1; 0 % of control in the data set on DYRK1A [7]; 44 % of control on HIPK4; 27 % of control at PIM3; 1 % of control at HIPK1. Also, the figures for the “Residual activity (% of control)” value at CLK3, on HIPK2 [8] and at CLK1 [9] were 2 % of control, 11 % of control and 0 % of control, respectively.

On to `C#CCn1c2cc(OC)ccc2c2ccnc(Cl)c21` [AnnH74], for which, on DYRK2, the “Residual activity (% of control) DYRK2” value is given as 85 % of control. In addition, the “Residual activity (% of control) DYRK1A” value at DYRK1A [1] is 12 % of control. The “Residual activity (% of control) DYRK1B” value on DYRK1B is given as 35 % of control. Further, the “Residual activity (% of control) HIPK2” value at HIPK2 [2] is recorded as 97 % of control. Further, at CLK1 [3], the “Residual activity (% of control) CLK1” value is reported as 46 % of control.

`CN1C(=O)/C(=C/c2ccc3c(c2)OCO3)N=C1N` [Leucett-amine B, Leucettamine B]: the “Residual activity (% of control)” value at HIPK3 is on record as 45 % of control; at PIM2 it was 82 % of control; at IRAK1, 100 % of control; with DYRK1A [7], 2 % of control; at HIPK4, 91 % of control; at PIM3, 71 % of control. In addition, the “Residual activity (% of control)” value is reported as 34 % of control at HIPK1, 73 % of control at PIM1 and 60 % of control at HIPK2 [8].

Turning to `COc1ccc2c(c1)[nH]c1c(Cl)nccc12` [AnnH24], the viability at 3 days, 1 µM was 75% in the data set “Cell viability XTT assay [4]” (SH-SY5Y cells), 95% in “Cell viability XTT assay [5]” (PC12 cells) and 97% in the data set “Cell viability XTT assay [6]” (HeLa cells). Moreover, the viability at 3 days, 3 µM in “Cell viability XTT assay [4]” (SH-SY5Y cells, 3 μM) turned out to be 66%; in “Cell viability XTT assay [5]” (PC12 cells, PC12, 3 μM) it was 90%; in the data set “Cell viability XTT assay [6]” (HeLa cells, 3 μM), 96%. Also, the viability at 3 days, 10 µM in the data set “Cell viability XTT assay [4]” (SH-SY5Y cells, 10 μM) was found to be 45%; in the data set “Cell viability XTT assay [5]” (PC12 cells, PC12, 10 μM), 81%; in “Cell viability XTT assay [6]” (HeLa cells, 10 μM), 72%. In addition, at DYRK2, the “Residual activity (% of control) DYRK2” value is given as 63 % of control. For the same compound, the “Residual activity (% of control) DYRK1B” value on DYRK1B was 44 % of control. Besides, the “Residual activity (% of control) HIPK2” value at HIPK2 [2] is reported as 91 % of control. Moreover, the “Residual activity (% of control) CLK1” value at CLK1 [3] was 17 % of control.

For `COc1ccc2c(c1)[nH]c1c(/C=C/c3ccccc3)nccc12` [AnnH18_5], at DYRK2, the “Residual activity (% of control) DYRK2” value is 51 % of control. For the same compound, the “Residual activity (% of control) DYRK1A” value on DYRK1A [1] is reported as 27 % of control. For the same compound, the “Residual activity (% of control) DYRK1B” value at DYRK1B is reported as 50 % of control. Moreover, the “Residual activity (% of control) HIPK2” value at HIPK2 [2] was 95 % of control. Further, the “Residual activity (% of control) CLK1” value on CLK1 [3] is reported as 58 % of control.

Usually viability stands for a per cent measure of how many cells are alive, often set against a control.
